ChEMBL document CHEMBL1150809, “New acyclic sesquiterpenes and norsesquiterpenes from the Caribbean Gorgonian Plexaurella grisea” (J Nat Prod, 2001)
In brackets after ≈: the same amount, converted by molar mass.

Legend:
Assay type in all cases: functional, cell-based
[1] = system: P388; assay: Cytotoxicity against mouse P388 cells
[2] = system: A549; assay: Cytotoxicity against human A549 cells
[3] = system: HT-29; assay: Cytotoxicity against human HT-29 cells
[4] = system: SK-MEL-28; assay: Cytotoxicity against human SK-MEL-28 cells

C=C/C(C)=C/C=C/C(C)CC(=O)CC(C)C (stereo not given)
IC50 [1]: 2.5 µg/mL (≈ 11.3 µM)
IC50 [2]: 5 µg/mL (≈ 22.7 µM)
IC50 [3]: 5 µg/mL (≈ 22.7 µM)
IC50 [4]: 5 µg/mL (≈ 22.7 µM)

CC(C)=C/C=C\C(C)/C=C/C=C(\C)C=O (stereo not given)
IC50 [1]: > 10 µg/mL
IC50 [2]: > 10 µg/mL
IC50 [3]: > 10 µg/mL
IC50 [4]: > 10 µg/mL

C=C/C(C)=C\C=C\C(C)CC(=O)CC(C)C (stereo not given)
IC50 [1]: 2.5 µg/mL (≈ 11.3 µM)
IC50 [2]: 2.5 µg/mL (≈ 11.3 µM)
IC50 [3]: 2.5 µg/mL (≈ 11.3 µM)
IC50 [4]: 2.5 µg/mL (≈ 11.3 µM)

C=C/C(C)=C/CC(OC(C)=O)C(=C)CCC=C(C)C (stereo not given)
IC50 [1]: 2.5 µg/mL (≈ 9.53 µM)
IC50 [2]: 5 µg/mL (≈ 19.1 µM)
IC50 [3]: 5 µg/mL (≈ 19.1 µM)
IC50 [4]: 5 µg/mL (≈ 19.1 µM)

CC(C)=CCCC(C)/C=C/C=C(\C)C=O (stereo not given)
IC50 [1]: 0.5 µg/mL (≈ 2.42 µM)
IC50 [2]: 2.5 µg/mL (≈ 12.1 µM)
IC50 [3]: 2.5 µg/mL (≈ 12.1 µM)
IC50 [4]: 2.5 µg/mL (≈ 12.1 µM)
